Test results reported in patent publication US12263172B2, “Toll-like receptor agonists for use in the treatment of hepatitis b” (priority 2019, dated 2025).
Read-outs that look alike come from different tables or passages of the source.

Assays:
BCS classification = format: physicochemical; conditions: high solubility, low permeability
Method: AUC48h was approximately 17% (95% Cl: 65.89-105.71%) lower in fed condition compared with fasted. These differences are aligned with BCS Class 3 (high solubility, low permeability) compound properties.

[1] = embryofetal development in rabbits; format: in vivo
Excerpt: (§1) Exposure increased more than dose-proportionally at low doses. Variability in exposure was high. • In vitro plasma protein binding was between 79.6% and 94.2% in animals and humans. Volume of distribution after intravenous dosing was high. […] Main metabolic pathways were oxygenation, hydrogenation, dehydrogenation, dealkylation, acetylation, glucuronidation, and/or glutathione conjugation. • In rats, >80% of drug-related material was found in feces, 11% to 20% in bile, and <4% in urine. […] There were no effects on embryofetal development up to 1 mg/kg/dose in rats and 30 mg/kg/dose in rabbits.

[2] = in vitro plasma protein binding; format: in vitro ADME; conditions: human, animals and humans
Excerpt: as §1

[3] = Phase 1 multiple dose pharmacokinetics in healthy adults; format: in vivo, human
Method: Following a single dose of Compound 4, intensive blood samples were collected over the first 24 hours, samples were then collected daily through Day 7, and weekly samples were collected through Day 35. Plasma concentrations of Compound 4 were evaluated using a validated liquid chromatography with tandem mass spectrometry method; the lower limit of quantification was 1 pg/mL. PK parameters were estimated using non-compartmental analysis (WinNonlin®, Certara, Princeton, NJ, USA). Descriptive statistics were used to summarize plasma concentrations and derived PK parameters of Compound 4. The impact of food on PK parameters was analyzed using geometric least square mean point estimates (mixed-effects model on log-transformed values with treatment as fixed effect and subject as a random effect).
Compound 4 was administered every week for 4 weeks in fasted condition at a dose of 1.25 mg.

human TLR7 = target: T1, human TLR7 (Homo sapiens, UniProt Q9NYK1); assay: activation of human TLR7 (LEC); format: cell-based
T1 sequence (Q9NYK1 27-1049): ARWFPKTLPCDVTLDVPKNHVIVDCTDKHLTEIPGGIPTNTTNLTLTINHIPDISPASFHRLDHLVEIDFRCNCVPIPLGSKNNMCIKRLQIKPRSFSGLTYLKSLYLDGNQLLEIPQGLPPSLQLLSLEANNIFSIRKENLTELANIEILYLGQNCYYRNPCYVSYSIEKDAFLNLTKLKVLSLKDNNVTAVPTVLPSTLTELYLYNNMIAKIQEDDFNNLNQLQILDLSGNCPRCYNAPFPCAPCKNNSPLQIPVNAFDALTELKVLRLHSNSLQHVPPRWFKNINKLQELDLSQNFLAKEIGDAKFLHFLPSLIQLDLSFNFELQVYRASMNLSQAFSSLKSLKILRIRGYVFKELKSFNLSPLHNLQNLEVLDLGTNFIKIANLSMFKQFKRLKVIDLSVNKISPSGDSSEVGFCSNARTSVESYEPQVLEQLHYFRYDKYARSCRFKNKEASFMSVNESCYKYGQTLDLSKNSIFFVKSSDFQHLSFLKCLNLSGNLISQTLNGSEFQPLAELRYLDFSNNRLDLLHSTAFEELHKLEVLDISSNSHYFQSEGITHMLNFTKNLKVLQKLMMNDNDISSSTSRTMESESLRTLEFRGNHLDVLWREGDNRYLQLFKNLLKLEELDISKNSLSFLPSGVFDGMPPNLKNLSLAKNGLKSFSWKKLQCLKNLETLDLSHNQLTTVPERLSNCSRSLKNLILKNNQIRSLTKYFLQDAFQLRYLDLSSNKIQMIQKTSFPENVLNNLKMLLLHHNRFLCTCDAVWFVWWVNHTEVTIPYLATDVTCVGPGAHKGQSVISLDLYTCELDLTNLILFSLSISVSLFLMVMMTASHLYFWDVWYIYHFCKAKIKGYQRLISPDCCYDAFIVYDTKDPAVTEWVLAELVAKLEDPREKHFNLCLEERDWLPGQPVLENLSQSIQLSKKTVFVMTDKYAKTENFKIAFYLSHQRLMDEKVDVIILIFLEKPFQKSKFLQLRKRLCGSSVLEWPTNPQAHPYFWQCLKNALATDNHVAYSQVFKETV

[4] = target: T2, organic ion transporter 2 (OCT2) (Homo sapiens, UniProt O15244); assay: OCT2 inhibition in vitro; format: in vitro ADME
T2 sequence (O15244 1-555): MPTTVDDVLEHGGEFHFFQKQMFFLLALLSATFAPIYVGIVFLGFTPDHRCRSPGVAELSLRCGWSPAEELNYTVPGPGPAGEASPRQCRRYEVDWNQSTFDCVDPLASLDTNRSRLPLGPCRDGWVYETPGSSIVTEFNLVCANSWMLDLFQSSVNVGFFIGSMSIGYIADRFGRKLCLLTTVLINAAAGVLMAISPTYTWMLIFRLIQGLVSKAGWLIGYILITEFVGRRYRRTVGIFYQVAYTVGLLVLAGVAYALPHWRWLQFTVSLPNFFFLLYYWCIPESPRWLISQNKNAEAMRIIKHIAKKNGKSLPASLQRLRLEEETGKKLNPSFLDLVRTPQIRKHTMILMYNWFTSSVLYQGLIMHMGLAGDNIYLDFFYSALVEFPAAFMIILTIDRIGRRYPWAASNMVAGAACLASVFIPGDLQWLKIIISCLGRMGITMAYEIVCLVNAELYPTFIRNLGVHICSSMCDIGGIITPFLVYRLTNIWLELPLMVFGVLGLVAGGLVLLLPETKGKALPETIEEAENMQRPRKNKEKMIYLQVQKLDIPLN
Excerpt: as §1

human whole blood cells = assay: cytokine release in vitro in whole blood cells; format: cell-based
Excerpt: as §1
LEC for Compound 4-induced cytokine release in vitro was determined to be 2 nM.

HBV-infected PHHs = assay: antiviral activity of compound-stimulated human whole blood and PBMC supernatant in HBV-infected PHHs; format: cell-based
P-glycoprotein = P-glycoprotein (Homo sapiens, UniProt P08183); assay: in vitro permeability and P-glycoprotein substrate; format: in vitro ADME
P-glycoprotein, sequence (P08183 whole entry): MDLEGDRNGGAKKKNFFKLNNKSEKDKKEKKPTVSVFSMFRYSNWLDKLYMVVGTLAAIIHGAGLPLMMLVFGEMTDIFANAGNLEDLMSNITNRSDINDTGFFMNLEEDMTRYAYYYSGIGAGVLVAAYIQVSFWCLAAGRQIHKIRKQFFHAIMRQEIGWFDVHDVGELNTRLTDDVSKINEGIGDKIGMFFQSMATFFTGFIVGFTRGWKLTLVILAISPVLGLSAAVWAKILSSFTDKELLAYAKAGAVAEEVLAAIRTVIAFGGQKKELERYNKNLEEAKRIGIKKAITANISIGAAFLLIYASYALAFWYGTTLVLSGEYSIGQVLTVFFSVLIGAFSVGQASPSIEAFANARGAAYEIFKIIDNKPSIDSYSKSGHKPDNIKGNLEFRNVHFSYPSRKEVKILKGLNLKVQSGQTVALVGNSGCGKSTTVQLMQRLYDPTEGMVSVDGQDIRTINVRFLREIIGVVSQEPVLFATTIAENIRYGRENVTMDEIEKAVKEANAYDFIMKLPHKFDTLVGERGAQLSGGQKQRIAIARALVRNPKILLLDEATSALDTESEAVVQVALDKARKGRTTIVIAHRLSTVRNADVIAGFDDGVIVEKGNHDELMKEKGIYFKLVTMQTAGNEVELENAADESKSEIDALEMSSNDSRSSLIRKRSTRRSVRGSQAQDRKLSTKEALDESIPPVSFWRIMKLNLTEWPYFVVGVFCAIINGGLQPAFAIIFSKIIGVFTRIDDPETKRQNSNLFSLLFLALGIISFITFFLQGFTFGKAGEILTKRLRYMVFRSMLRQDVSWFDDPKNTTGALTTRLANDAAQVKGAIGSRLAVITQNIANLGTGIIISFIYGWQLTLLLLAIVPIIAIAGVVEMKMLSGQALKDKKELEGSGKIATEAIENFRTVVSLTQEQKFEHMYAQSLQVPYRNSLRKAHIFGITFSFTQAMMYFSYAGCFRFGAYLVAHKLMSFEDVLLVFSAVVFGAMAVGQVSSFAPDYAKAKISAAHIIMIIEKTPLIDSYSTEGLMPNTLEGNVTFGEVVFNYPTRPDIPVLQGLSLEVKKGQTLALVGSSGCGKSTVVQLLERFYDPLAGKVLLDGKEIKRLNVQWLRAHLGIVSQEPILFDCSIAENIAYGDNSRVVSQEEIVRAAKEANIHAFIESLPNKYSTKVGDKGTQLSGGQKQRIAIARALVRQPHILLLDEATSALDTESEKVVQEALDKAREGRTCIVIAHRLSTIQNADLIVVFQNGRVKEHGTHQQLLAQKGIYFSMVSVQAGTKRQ
Excerpt: as §1

[5] = in vitro permeability and P-glycoprotein substrate; format: in vitro ADME
Excerpt: as §1

[6] = pharmacokinetics in monkey; conditions: in vivo, po
Excerpt: as §1

[7] = after 4 weeks of qw dosing, 1.25 mg

## CCCCOc1nc(N)c2[nH]cc(Cc3ccc(CN4CCCC4)cc3)c2n1 [Compound 4]
BCS classification
  BCS class: BCS Class 3
[1]
  dose without effects on embryofetal development: ≤ 30 mg/kg/dose
[2]
  fraction unbound: 0.058 to 0.204
[3]; 1.25 mg qw fasted
  excreted as unchanged drug in urine within the first 24 hours after the first and second dosing: Less than 0.22%
  terminal elimination, median value: 244 h
[3]; [7]
  mean accumulation ratio for AUC24h: 1.83
  mean accumulation ratio for AUC72h: 2.27
  mean accumulation ratio for AUCT: 2.75
[3]; human, plasma, oral, 1.25 mg, 1.25 mg qw fasted, SD 67.2, read-out: mean Cmax after the fourth dose
  Cmax: 0.235 ng/mL
[3]; human, plasma, oral, 1.25 mg, 1.25 mg qw fasted, SD 88.4, read-out: mean Cmax after the first dose
  Cmax: 0.186 ng/mL
[3]; human, plasma, oral, 1.25 mg, 1.25 mg qw fasted, SD 591, read-out: mean AUC24h after the fourth dose
  AUC: 1.76 ng·h/mL
[3]; human, plasma, oral, 1.25 mg, 1.25 mg qw fasted, SD 874, read-out: mean AUC24h after the first dose
  AUC: 1.21 ng·h/mL
[3]; human, plasma, oral, 1.25 mg qw fasted, read-out: mean Ctrough before the fourth dose
  concentration at 21 days: 0.0408 ± 0.0489 ng/mL
[3]; human, plasma, oral, 1.25 mg qw fasted, read-out: mean Ctrough before the second dose
  concentration at 7 days: 0.00717 ± 0.0032 ng/mL
Human TLR7
  lowest effective concentration (LEC) for activation of human TLR7: 70 nM
[4]
  IC50: 4.97 µM
Human whole blood cells
  overall LEC for cytokine release in vitro: 2 nM
Human whole blood cells; most cytokines and chemokines tested
  potency on human versus monkey whole blood cells: more potent on human whole blood cells compared to monkey whole blood cells
HBV-infected PHHs
  anti-HBV activity target concentration in vitro: 3.3 nM
HBV-infected PHHs; 3.3 nM
  maximum decline of HBV DNA compared to DMSO controls: 1.5 log 10
  maximum decline of HBV RNA compared to DMSO controls: 1.1 log 10
  maximum decline of HBeAg compared to DMSO controls: 1.3 log 10
  maximum decline of HBsAg compared to DMSO controls: 0.4 log 10
P-glycoprotein
  P-glycoprotein substrate: P-glycoprotein substrate
[5]
  in vitro permeability: low
[6]
  bioavailability: 1.5%
